Assay results published in the supplement of paper PMC11451515.

System: P12-Ichikawa
Test: cell viability relative to DMSO control; higher = less cytotoxic
Settings: 48 h
Outline: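 NOMO1 or SEM cells were plated at 500 cells/well and P12-Ichikawa cells at 1000 cells/well in 1536-well plates (5 μl), after each leukemia line had been adapted for at least four passages in each medium. Pin dosing delivered library compounds in DMSO at 11 threefold concentrations, 47 μM to 0.79 nM. CellTiter-Glo One luminescence was read after 48 h at 37°C. Viability is reported as a per-plate percentage of DMSO wells, with cell-free wells as background.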

[1] = HPLM + 10% dialyzed FBS, 0.000781 µM
[2] = HPLM + 10% dialyzed FBS, 0.00234 µM
[3] = HPLM + 10% dialyzed FBS, 0.00702 µM
[4] = HPLM + 10% dialyzed FBS, 0.0211 µM
[5] = HPLM + 10% dialyzed FBS, 0.0632 µM
[6] = HPLM + 10% dialyzed FBS, 0.19 µM
[7] = HPLM + 10% dialyzed FBS, 0.569 µM
[8] = HPLM + 10% dialyzed FBS, 1.71 µM
[9] = HPLM + 10% dialyzed FBS, 5.12 µM
[10] = HPLM + 10% dialyzed FBS, 15.4 µM
[11] = HPLM + 10% dialyzed FBS, 46.1 µM
[12] = RPMI 5 mM glucose + 10% FBS, 0.000781 µM
[13] = RPMI 5 mM glucose + 10% FBS, 0.00234 µM
[14] = RPMI 5 mM glucose + 10% FBS, 0.00702 µM
[15] = RPMI 5 mM glucose + 10% FBS, 0.0211 µM
[16] = RPMI 5 mM glucose + 10% FBS, 0.0632 µM
[17] = RPMI 5 mM glucose + 10% FBS, 0.19 µM
[18] = RPMI 5 mM glucose + 10% FBS, 0.569 µM
[19] = RPMI 5 mM glucose + 10% FBS, 1.71 µM
[20] = RPMI 5 mM glucose + 10% FBS, 5.12 µM
[21] = RPMI 5 mM glucose + 10% FBS, 15.4 µM
[22] = RPMI 5 mM glucose + 10% FBS, 46.1 µM
[23] = RPMI 5 mM glucose + 10% dialyzed FBS, 0.000781 µM
[24] = RPMI 5 mM glucose + 10% dialyzed FBS, 0.00234 µM
[25] = RPMI 5 mM glucose + 10% dialyzed FBS, 0.00702 µM
[26] = RPMI 5 mM glucose + 10% dialyzed FBS, 0.0211 µM
[27] = RPMI 5 mM glucose + 10% dialyzed FBS, 0.0632 µM
[28] = RPMI 5 mM glucose + 10% dialyzed FBS, 0.19 µM
[29] = RPMI 5 mM glucose + 10% dialyzed FBS, 0.569 µM
[30] = RPMI 5 mM glucose + 10% dialyzed FBS, 1.71 µM
[31] = RPMI 5 mM glucose + 10% dialyzed FBS, 5.12 µM
[32] = RPMI 5 mM glucose + 10% dialyzed FBS, 15.4 µM
[33] = RPMI 5 mM glucose + 10% dialyzed FBS, 46.1 µM

Row | Structure (SMILES) | cell viability [1] [%] | cell viability [2] [%] | cell viability [3] [%] | cell viability [4] [%] | cell viability [5] [%] | cell viability [6] [%] | cell viability [7] [%] | cell viability [8] [%] | cell viability [9] [%] | cell viability [10] [%] | cell viability [11] [%] | cell viability [12] [%] | cell viability [13] [%] | cell viability [14] [%] | cell viability [15] [%] | cell viability [16] [%] | cell viability [17] [%] | cell viability [18] [%] | cell viability [19] [%] | cell viability [20] [%] | cell viability [21] [%] | cell viability [22] [%] | cell viability [23] [%] | cell viability [24] [%] | cell viability [25] [%] | cell viability [26] [%] | cell viability [27] [%] | cell viability [28] [%] | cell viability [29] [%] | cell viability [30] [%] | cell viability [31] [%] | cell viability [32] [%] | cell viability [33] [%]
1 | COC1=CC=CC(=C1/C2=N/CC3=C(N=C(NC4=CC(=C(C=C4)C(O)=O)OC)N=C3)C5=CC=C(Cl)C=C25)F | 82.2 | 87.8 | 82.3 | 87.8 | 56 | 16.6 | 13.5 | 12 | 13.9 | 18.2 | 20.5 | 93.8 | 81.6 | 77.9 | 83 | 49 | 22.4 | 16 | 16 | 15.8 | 22.1 | 28.5 | 81 | 80.3 | 77.8 | 77.7 | 49.6 | 30 | 24.2 | 23 | 27.2 | 29.7 | 35.4
2 | O=C(c1ccc(C(=O)N2CCC(N3CCCC3)CC2)c(Nc2ccccc2)c1)N1CCC(N2CCCC2)CC1 | 103 | 103 | 103 | 106 | 108 | 102 | 106 | 109 | 98.9 | 96.5 | 94.5 | 104 | 95.3 | 93.7 | 101 | 98.1 | 100 | 95.8 | 97.4 | 100 | 92.1 | 95.4 | 98.3 | 97.5 | 95.9 | 96.3 | 100 | 101 | 103 | 101 | 91.1 | 96.1 | 86.1
3 | CCN(CCO)CCCC(C)Nc1ccnc2cc(Cl)ccc12 (stereo not drawn) | 99.5 | 114 | 114 | 111 | 110 | 105 | 75.6 | 112 | 57.5 | 14.7 | 9.45 | 102 | 110 | 110 | 103 | 108 | 106 | 74.6 | 105 | 66.2 | 27.3 | 10.7 | 102 | 108 | 106 | 117 | 112 | 103 | 90.7 | 102 | 3.75 | 56.4 | 15.4
4 | COc1c(C)c2c(c(O)c1C/C=C(\C)CCC(=O)OCCN1CCOCC1)C(=O)OC2 | 106 | 114 | 114 | 104 | 124 | 106 | 109 | 109 | 58.2 | 40.1 | 35.6 | 104 | 105 | 111 | 109 | 105 | 106 | 110 | 93.9 | 50.2 | 30.1 | 26 | 109 | 100 | 100 | 104 | 98.3 | 106 | 102 | 88.3 | 57.1 | 35.4 | 30.3
5 | CC[P](CC)(CC)=[Au][S][C@@H]1O[C@H](COC(C)=O)[C@@H](OC(C)=O)[C@H](OC(C)=O)[C@H]1OC(C)=O | 122 | 108 | 116 | 109 | 115 | 105 | 110 | 77.2 | 23 | 2.24 | 1.8 | 104 | 119 | 112 | 123 | 115 | 103 | 109 | 9.37 | 2.79 | 2.08 | 1.61 | 117 | 111 | 117 | 117 | 114 | 105 | 96.3 | 3.62 | 2.8 |  | 1.1
6 | COCCNCCCn1c(C(=O)CF)c(-c2ccc(C)cc2)c2c(N)ncnc21 | 108 | 95.8 | 104 | 102 | 111 | 103 | 102 | 95.1 | 85.3 | 94.5 | 87.2 | 118 | 100 | 108 | 103 | 107 | 104 | 101 | 103 | 104 | 96.7 | 91.7 | 103 | 96.7 | 116 | 98 | 106 | 101 | 105 | 89.8 | 94.7 | 83.7 | 72.2
7 | N[S+](=O)([O-])c1cc2c(cc1Cl)NCN[S+]2(=O)[O-] | 94.4 | 103 | 104 | 110 | 112 | 116 | 116 | 113 | 111 | 110 | 104 | 111 | 115 | 110 | 125 | 118 | 126 | 126 | 121 | 108 | 118 | 120 | 110 | 106 | 108 | 105 | 116 | 105 | 111 | 116 | 118 | 107 | 104
8 | O=C(Nc1cccc2c(=O)cc(-c3nnn[nH]3)oc12)c1ccc(OCCCCc2ccccc2)cc1 | 86.7 | 84.2 | 90.4 | 93.9 | 101 | 94.8 | 90 | 96 | 96.9 | 101 | 15.5 | 81 | 84.9 | 99.9 | 91.8 | 95.7 | 89.4 | 88.9 | 91 | 87.6 | 80 | 54.6 | 73.1 | 80.4 | 87 | 88.7 | 86.7 | 92.5 | 85.1 | 81.6 | 85.5 | 85.4 | 21.7
